Measured values from patent publication US8815944B2, “Pharmaceutical composition with gelling properties containing a tyrosine derivative” (Ethypharm, priority 2008, dated 2014).
Structures can show the parent of a compound that is named as a salt.

Tests used:
Format in all cases: physicochemical
[1] = Differential scanning calorimetry (DSC) of organogels in safflower oil; conditions: organogelator 5% (w/w) in safflower oil; for H (enthalpy of the gel-solution transition): area of endothermic peak; for TGS (gel-solution transition temperature): maximum of endothermic peak
Procedure: (§1) Organogelators at a concentration of 5% (w/w) were solubilized in safflower oil at high temperature (>80° C.) and gels were obtained by cooling the mixture.
The gels were characterized by differential scanning calorimetry (DSC) to obtain gel-solution transition temperatures (TGS) and enthalpy values of the transition (ΔH). Briefly, thermograms of gels were collected on a 2910 TA Instruments DSC system (New Castle, Del.). The instrument was calibrated with indium. Gels were weighed into aluminum pans that were subsequently sealed. Temperature was scanned between 5 and 90° C. at 10° C./min. The reported gel-sol transition temperatures (TGS) and enthalpies (ΔH) corresponded to the maximum and the area of the endothermic peaks respectively.

[2] = Rheological analysis of the gels (gel hardness, complex modulus G*); conditions: organogelator 5% (w/w) in safflower oil; 25±0.1° C., 0.1 to 10 Hz
Procedure: as §1
Rheological analysis of the gels was performed to determine the gel hardness, by measuring the complex modulus G*. The rheological properties of the organogels were measured by an AR2000 (Advanced Rheometer 2000, TA Instruments, New Castle, Del.), with parallel plate geometry (diameter of 40 mm). Organogels were heated until reaching TGS and they were placed between the parallel plates. The final thickness of the material coat between the plates was 650 to 750 μm. The film was cooled at 4° C. to form the gel. In the linear regime of the gel, the complex modulus G* have been measured as a function of the angular frequency (0.1 to 10 Hz) at 25±0.1° C. G*=(G′^2+G″^2)^0.5 with G′ the storage modulus and G″ the loss modulus.

[3] = Stability after sterilization by γ-radiation, by 1H-NMR; conditions: γ-radiation at 25 kGy on dry ice, 60Co source
Procedure: All formulation components were sterilized individually. B-TyrOCH3 and rivastigmine hydrogen tartrate (Riv) were sterilized on dry ice by γ-radiation at 25 kGy using a ^60Co source (Nordion Inc., Laval, QC, Canada). Stability of the organogelator and drug after sterilization was confirmed by ^1H-NMR. The safflower oil and NMP were filtered on 0.2-μm polytetrafluoroethylene filters. Safflower oil, B-TyrOCH3 (5% w/w) and Rivastigmine were mixed at 85° C. until solubilisation of the organogelator. N-methylpyrrolidone (NMP) (3% w/w) was added at high temperature, mixed and gel formulation syringes (20 G needle) were prepared, under aseptic conditions and put on ice during 15 minutes and at room temperature before injection. A control formulation was prepared without the organogelator in the same condition (oil formulation).

Row | Compound | H (enthalpy of the gel-solution transition) [1] [kcal/mol] | TGS (gel-solution transition temperature) [1] [°C] | G* (complex modulus, gel hardness) [2] [kPa] | Stability after sterilization [3]
1 | CCCCCCCCCCCCCCCCCCCCCC(=O)N[C@@H](Cc1ccccc1)C(=O)OC [B-Phe-OCH3] | 14.6 | 53 | 6 | –
2 | CCCCCCCCCCCCCCCCCCCCCC(=O)N[C@@H](Cc1ccc(O)cc1)C(=O)OC [B-Tyr-OCH3, N-Behenoyl L-tyrosine methyl ester] | 17 | 74 | 37.6 | –
3 | CCCCCCCCCCCCCCCCCC(=O)NC(C)C(=O)OC (stereo not shown) [S-Ala-OCH3] | 13.1 | 60 | 5 | –
4 | CCCCCCCCCCCCCCCCCC(=O)N[C@@H](Cc1ccccc1)C(=O)OC [S-Phe-OCH3, N-stearoyl L-phenylalanine methyl ester] | 9.08 | 43 | 6.1 | –
5 | CCCCCCCCCCCCCCCCCC(=O)N[C@@H](Cc1c[nH]c2ccccc12)C(=O)OC [S-Trp-OCH3, N-stearoyl L-tryptophan methyl ester] | 5.5 | 56 | <0.1 | –
6 | CCCCCCCCCCCCCCCCCC(=O)N[C@@H](Cc1c[nH]c2ccccc12)C(=O)O [S-Trp-OH, N-stearoyl L-tryptophan] | 3.82 | 122 | <0.1 | –
7 | CCCCCCCCCCCCCCCCCC(=O)N[C@@H](Cc1ccc(O)cc1)C(=O)OC [S-Tyr-OCH3, N-Stearoyl L-tyrosine methyl ester] | 12 | 65 | 15.2 | –
8 | CCCCCCCCCCCCCCCCCC(=O)N[C@@H](Cc1ccc(O)cc1)C(=O)O [S-Tyr-OH, N-stearoyl L-tyrosine] | 4.3 | 127 | 5 | –
9 | CCN(C)C(=O)Oc1cccc([C@H](C)N(C)C)c1 [rivastigmine hydrogen tartrate] | – | – | – | confirmed
